{"source": "paper PMC11413503", "about": "“SCR‐7952, a highly selective MAT2A inhibitor, demonstrates synergistic antitumor activities in combination with the S‐adenosylmethionine‐competitive or the methylthioadenosine‐cooperative protein arginine methyltransferase 5 inhibitors in methylthioadenosine phosphorylase‐deleted tumors” (MedComm, 2024)", "key": {"[1]": {"test_system": "HCT116 MTAP−/− subcutaneous xenograft", "assay": "Xenograft efficacy study, monotherapy", "type": "in vivo, mice", "protocol": "An efficacy study in an HCT116 MTAP ^−/− subcutaneous xenograft mouse model was performed to evaluate the antitumor effect of SCR‐7952, with once daily (q.d.) oral dosing of 0.25, 0.5, 1.0, or 3.0 mg/kg, respectively.\nNu/Nu female mice (6–12 weeks old; Beijing Vital River Laboratory Animal Technology Co., Ltd.) were used for in vivo xenograft studies. All experimental procedures involving animals and their care were in accordance with the State Council Regulations for Laboratory Animal Management (Enacted in 1988) and approved by the Institutional Animal Care and Use Committee of Jiangsu Simcere Pharmaceutical Co., Ltd. (IACUC; Approval No. AP‐056).\n(§1) Subcutaneous injections of HCT116 MTAP ^−/− cells were performed (5 × 10^6 cells in 100 µL) into Nu/Nu female mice. Mice were observed daily for the development of tumors. Six days after tumor implantation, mice were randomly distributed into different groups. SCR‐7952, AG‐270, JNJ‐64619178, or vehicle (water with 5% N‐methylpyrrolidone and 10% solutol HS‐15) were daily administrated by oral gavage. Tumor volumes and body weights were recorded three times per week. Tumor volumes were measured in two dimensions using a caliper, and the volume was expressed in mm^3 using the formula: V = (L × W × W)/2, where V is tumor volume, L is tumor length (the longest tumor dimension), and W is tumor width (perpendicular to L). The tumor growth inhibition rate (TGI%) of each dosing group was calculated according to the following formula: %TGI = (1 − (V t(treatment group) − V 0(treatment group))/(V t(vehicle group) − V 0(vehicle group))) × 100%, where V t is average tumor volume of a dosing group on a specific day, V 0 is average tumor volume of a dosing group on the initial day. At the end of the study, plasma and tumor tissues were collected and stored at −80°C for further measurement."}, "HCT116 MTAP−/− cells": {"test_system": "HCT116 MTAP−/− cells", "assay": "Combination proliferation assay with PRMT5 inhibitors (Bliss model)", "type": "cell-based", "details": "8 days", "protocol": "Cells were plated in 96‐well cell culture plates and allowed to attach overnight at 37°C in 5% CO2. […] The final concentration of DMSO was 0.1% in media. Cell proliferation was measured using CellTiter‐Glo Cell Viability Assay (Promega). The IC50 values were calculated using the GraphPad Prism 9. Drug combination effects were analyzed using Combenefit software.[45]"}, "human UGT1A1": {"molecular_target": "human UGT1A1 (Homo sapiens, UniProt P22309)", "sequence (P22309 26-533)": "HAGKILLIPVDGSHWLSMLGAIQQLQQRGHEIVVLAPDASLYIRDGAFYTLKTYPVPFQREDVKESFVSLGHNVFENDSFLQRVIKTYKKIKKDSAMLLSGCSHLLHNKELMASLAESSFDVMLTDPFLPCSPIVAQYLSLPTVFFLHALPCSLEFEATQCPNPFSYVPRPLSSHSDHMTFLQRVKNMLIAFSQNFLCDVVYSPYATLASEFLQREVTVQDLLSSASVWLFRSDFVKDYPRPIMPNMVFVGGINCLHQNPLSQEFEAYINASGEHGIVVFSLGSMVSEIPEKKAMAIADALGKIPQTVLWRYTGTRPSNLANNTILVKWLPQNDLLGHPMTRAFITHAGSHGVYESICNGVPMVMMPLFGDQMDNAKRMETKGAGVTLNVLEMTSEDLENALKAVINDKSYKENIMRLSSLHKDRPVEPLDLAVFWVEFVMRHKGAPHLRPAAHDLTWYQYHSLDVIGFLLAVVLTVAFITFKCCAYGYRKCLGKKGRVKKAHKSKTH", "assay": "UGT1A1 biochemical assay"}, "HCT116 MTAP−/− xenograft": {"test_system": "HCT116 MTAP−/− xenograft", "assay": "Xenograft combination treatment study", "type": "in vivo, mice", "details": "SCR-7952 0.3 mg/kg alone", "protocol": "as §1"}, "HRH2": {"molecular_target": "HRH2 (Homo sapiens, UniProt P25021)", "sequence (P25021 whole entry, species assumed)": "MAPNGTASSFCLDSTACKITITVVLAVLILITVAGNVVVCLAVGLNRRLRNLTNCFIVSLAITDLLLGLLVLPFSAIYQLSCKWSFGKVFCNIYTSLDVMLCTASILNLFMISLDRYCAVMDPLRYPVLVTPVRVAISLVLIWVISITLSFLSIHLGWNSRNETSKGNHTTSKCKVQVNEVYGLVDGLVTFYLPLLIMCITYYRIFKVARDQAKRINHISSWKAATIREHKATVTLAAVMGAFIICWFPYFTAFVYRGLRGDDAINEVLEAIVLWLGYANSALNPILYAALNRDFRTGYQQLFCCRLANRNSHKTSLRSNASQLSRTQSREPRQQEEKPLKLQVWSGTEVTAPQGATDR", "assay": "Mini-profiling panel, GPCR", "type": "cell-based", "details": "GPCR Targets"}}, "data": [{"smiles": "Cn1cnc2c(=O)n(-c3cccnc3C3CC3)c3cc(Cl)ccc3c21", "note": "[SCR‐7952, 7‐chloro‐5‐(2‐cyclopropylpyridin‐3‐yl)‐1‐methyl‐1,5‐dihydro‐4H‐imidazo[4,5‐c]quinolin‐4‐one]", "values": [{"measurement": "TGI", "setting": "[1]; SCR-7952 0.5 mg/kg oral q.d.", "result": 60.0, "unit": "%"}, {"measurement": "TGI", "setting": "[1]; SCR-7952 1 mg/kg oral q.d.", "result": 62.7, "unit": "%"}, {"measurement": "TGI", "setting": "[1]; SCR-7952 3.0 mg/kg oral q.d.", "result": 82.9, "unit": "%"}, {"measurement": "interaction on cell growth in combination with JNJ-64619178", "setting": "HCT116 MTAP−/− cells", "result": "synergistic interactions"}, {"measurement": "interaction on cell growth in combination with MRTX-1719", "setting": "HCT116 MTAP−/− cells", "result": "synergistic interactions"}, {"measurement": "synergistic effect in combination with GSK3326595", "setting": "HCT116 MTAP−/− cells", "result": "much weaker"}, {"measurement": "IC50", "setting": "human UGT1A1", "result": "> 100", "unit": "µM"}, {"measurement": "TGI", "setting": "HCT116 MTAP−/− xenograft", "result": 55.0, "unit": "%"}, {"measurement": "EC50", "setting": "HRH2; read-out: HRH2 Agonism EC50", "result": "> 10", "unit": "µM"}, {"measurement": "IC50", "setting": "HRH2; read-out: HRH2 Antagonism IC50", "result": "> 10", "unit": "µM"}]}]}
